Entries after “also recorded” stand apart in the source; their conditions may differ.
Legend:
REN 50 cells = assay: Effectiveness experiment: REN 50 renal tumors implanted in mice (tumor volume/weight, CD31 vascular density, necrosis); assay type: in vivo; conditions: for vascular density / tumor vasculature (anti-CD31 immunohistochemistry) / tumor weight and volume / percentage of necrosis: REN 50 tumors; for vascular density / tumor vasculature (anti-CD31 immunohistochemistry) / percentage of necrosis: compared to the control group; for vascular density / tumor vasculature (anti-CD31 immunohistochemistry): Figures 5 and 6; for tumor weight and volume: continuous administration; for percentage of necrosis: hematoxylin-eosin sections, Figure 7
Description: An effectiveness experiment was performed according to the following scheme: tumors of about 2 mm^3 size were implanted in mice, and the tumors were allowed to develop for 20 days (to a size of about 750 mm^3). The time from tumor development to death was measured as the anti-angiogenic response.
7 mice were implanted per treatment group. REN 50 cells were implanted. Treatment started when mice developed tumors with a volume tumor of about 750 mm^3, and lasted for three weeks. Table 2. Treatment groups
The inventors then analyzed whether these inhibitors produced any effect at the level of tumor vasculature by conducting in immunohistochemistry, using an anti-CD31 antibody as a marker of endothelial cells.
Hematoxylin-eosin stained paraffin sections of tumors obtained from mice from the different treatment groups were analyzed in order to evaluate the degree of necrosis.

primary tumor REN 28 = assay: Long-term survival / anti-angiogenic resistance experiment: tumors from primary tumor REN 28 in mice; assay type: in vivo
Source text: The inventors assessed next the effect of therapy with PD-ECGF inhibitors in a long term survival experiment, wherein the tumors are able to regrow (resistance) and wherein PD-ECGF overexpression has been observed.
A survival experiment was followed, wherein the drugs previously tested on the primary tumor from REN 28 were continuously administered. This tumor line was selected because the inventors this tumor is able to generate an anti-angiogenic resistance phenotype with after treatment with bevacizumab and DC101.
Again, tumors of about 2 mm^3 size were implanted in mice, and the tumors were allowed to develop for 30 days (with a size of about 1,000 mm^3). The time from tumor development to death was measured as the anti-angiogenic resistance.
Tumors were measured and weighted; samples were collected for further processing. Treatments were stopped or changed on day 15. Table 3. Treatment groups.
Several treatment strategies were followed in anti-VEGFR2 resistant tumors: • 1. stop the anti-VEGFR2 (DC101) treatment just when the tumors begin to becomes resistant, and verify if said tumors are able to regrow with or without vasculature (represented as "DC101→R→OFF" treatment group), • 2. change the VEGFR2 inhibition therapy by the inhibition of another pathway (PD-ECGF) (represented as "DC101→R→AEAC" treatment group), • 3. combine the VEGFR2-inhibition therapy (DC101) and the PD-ECGF-inhibition therapy ([…]) (represented as "DC101→R→DC101 1 + AEAC" treatment group).

[1] = AEAC added to DC101 after development of resistance (DC101→R→DC101 + AEAC)
[2] = therapy changed from DC101 to AEAC at onset of resistance (DC101→R→AEAC)

SMILES	vascular density / tumor vasculature (anti-CD31 immunohistochemistry) (REN 50 cells)	tumor weight and volume (REN 50 cells)	percentage of necrosis (REN 50 cells)	number of vessels (labeled with anti-CD31 antibody) (REN 50 cells; after 15 days of treatment, Figure 5)	number of vessels / vascular density (primary tumor REN 28; [1])	toxicity to animals (primary tumor REN 28; [1])	tumor size / tumor volume (primary tumor REN 28; [1])	average and total survival (primary tumor REN 28; REN 28, continuous treatment, compared to control mice, Figure 8)	survival (primary tumor REN 28; [2])	time of tumor progression (primary tumor REN 28; [2])	number of vessels (labeled with anti-CD31 antibody) (REN 50 cells; after 21 days of treatment, Figure 6)
Oc1ncnc2c1ncn2[C@@H]1O[C@H](COC(c2ccccc2)(c2ccccc2)c2ccccc2)[C@@H](O)[C@H]1O [KIN 59, 5'-O-trityl-inosine]	decreased tumor vasculature	decreased tumor weight and volume	increased tumor necrosis	decrease in the number of vessels							
NCCNc1[nH]c(=O)[nH]c(=O)c1Cl [AEAC, 6-(2-aminoethyl)amino-5-chlorouracil]	decreased tumor vasculature	decreased tumor weight and volume	increased tumor necrosis		decreased vascular density	toxic	small tumoral volume; also recorded: sustained effect on tumor volume reduction	increased average and total survival	increased survival	delayed the time of tumor progression	decrease in the number of vessels
